In patent US8975415B2, “Chromane compounds” (CoMentis, Inc., priority 2012, dated 2015):
Structures can show the parent of a compound that is named as a salt.

What was measured:
[1] = biological target: T1, BACE1 (Homo sapiens (Human), UniProt P56817); assay: Measurement of BACE1 inhibition by time resolved fluorescence resonance energy transfer (TR-FRET); format: biochemical; settings: Eu-CEVNLDAEFK-QSY 7 substrate, read-out: Test Example 2 IC50
Target sequence in this assay (P56817 75-416): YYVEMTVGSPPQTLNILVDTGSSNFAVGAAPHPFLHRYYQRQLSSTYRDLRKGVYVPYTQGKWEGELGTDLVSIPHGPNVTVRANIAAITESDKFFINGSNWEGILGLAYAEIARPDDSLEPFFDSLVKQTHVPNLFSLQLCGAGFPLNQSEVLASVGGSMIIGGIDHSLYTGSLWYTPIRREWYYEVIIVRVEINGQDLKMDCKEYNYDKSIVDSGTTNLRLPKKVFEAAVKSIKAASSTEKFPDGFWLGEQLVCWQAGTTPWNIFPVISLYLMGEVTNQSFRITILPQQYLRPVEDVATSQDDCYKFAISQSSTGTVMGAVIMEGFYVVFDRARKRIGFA

[2] = biological target: hERG potassium channel (Homo sapiens (Human), UniProt Q12809); assay: hERG inhibition, automated planar patch-clamp in hERG-expressing CHO cells; settings: for IC50: read-out: Test Example 5 hERG IC50, whole-cell patch clamp, room temperature
Chain of hERG potassium channel (Q12809 whole entry): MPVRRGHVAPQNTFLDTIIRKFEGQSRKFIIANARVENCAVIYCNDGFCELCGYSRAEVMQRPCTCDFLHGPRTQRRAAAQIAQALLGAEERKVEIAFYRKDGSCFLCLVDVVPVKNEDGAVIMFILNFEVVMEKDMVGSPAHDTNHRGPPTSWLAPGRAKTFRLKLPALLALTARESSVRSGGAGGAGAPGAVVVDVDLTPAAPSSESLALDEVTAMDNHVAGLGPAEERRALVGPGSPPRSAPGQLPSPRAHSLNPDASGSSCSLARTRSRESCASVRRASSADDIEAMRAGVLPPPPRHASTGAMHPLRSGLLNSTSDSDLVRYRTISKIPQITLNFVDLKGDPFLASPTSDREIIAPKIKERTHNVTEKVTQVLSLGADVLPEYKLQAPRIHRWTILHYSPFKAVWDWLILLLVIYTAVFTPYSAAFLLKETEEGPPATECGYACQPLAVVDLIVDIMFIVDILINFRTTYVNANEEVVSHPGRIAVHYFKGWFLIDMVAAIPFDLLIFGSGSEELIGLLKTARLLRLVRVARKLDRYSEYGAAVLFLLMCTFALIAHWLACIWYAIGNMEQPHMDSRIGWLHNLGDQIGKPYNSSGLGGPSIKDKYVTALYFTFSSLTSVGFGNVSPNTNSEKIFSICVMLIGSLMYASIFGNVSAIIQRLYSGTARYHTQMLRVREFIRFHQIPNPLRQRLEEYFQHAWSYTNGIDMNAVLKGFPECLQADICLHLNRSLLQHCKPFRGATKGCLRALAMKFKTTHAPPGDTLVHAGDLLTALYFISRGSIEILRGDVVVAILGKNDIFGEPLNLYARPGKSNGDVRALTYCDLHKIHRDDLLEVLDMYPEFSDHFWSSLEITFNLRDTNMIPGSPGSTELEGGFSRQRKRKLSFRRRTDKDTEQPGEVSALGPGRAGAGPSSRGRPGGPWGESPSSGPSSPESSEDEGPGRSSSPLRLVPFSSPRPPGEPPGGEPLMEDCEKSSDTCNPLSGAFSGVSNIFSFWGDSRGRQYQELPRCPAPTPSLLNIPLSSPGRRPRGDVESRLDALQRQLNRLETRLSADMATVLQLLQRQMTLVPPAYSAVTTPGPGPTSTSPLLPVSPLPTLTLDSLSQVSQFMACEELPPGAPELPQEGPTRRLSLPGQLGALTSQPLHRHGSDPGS

[3] = biological target: T1, BACE1; assay: Measurement of BACE1 inhibition by fluorescence resonance energy transfer (FRET), MCA substrate; settings: FRET; for IC50: read-out: Test Example 1 IC50, MCA-SEVNLDAEFK(DNP)-NH2 substrate, pH 4.4; for Ki: read-out: Test Example 1 BACE1 MCA Ki, MCA substrate
Target sequence in this assay (P56817 75-416): as the sequence (P56817 75-416) above

[4] = biological target: T1, BACE1; assay: Measurement of Aβ production inhibition in cell (SK-N-BE(2) neuroblastoma cells, Aβ40 ELISA); settings: SK-N-BE(2) cells, 6 hours
Target sequence in this assay (P56817 46-501): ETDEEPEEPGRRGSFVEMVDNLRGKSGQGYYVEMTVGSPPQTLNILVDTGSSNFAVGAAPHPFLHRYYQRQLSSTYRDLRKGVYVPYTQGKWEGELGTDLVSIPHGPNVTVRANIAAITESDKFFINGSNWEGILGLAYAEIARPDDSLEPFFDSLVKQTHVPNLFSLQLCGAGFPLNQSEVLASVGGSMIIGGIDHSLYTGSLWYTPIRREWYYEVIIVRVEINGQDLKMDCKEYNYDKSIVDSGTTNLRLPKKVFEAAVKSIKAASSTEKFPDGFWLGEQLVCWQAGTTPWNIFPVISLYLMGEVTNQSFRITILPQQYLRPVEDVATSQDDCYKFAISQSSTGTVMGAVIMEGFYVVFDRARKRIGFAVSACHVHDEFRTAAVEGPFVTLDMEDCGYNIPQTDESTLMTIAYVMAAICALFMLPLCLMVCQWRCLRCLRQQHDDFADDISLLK

[5] = Test Example 3 IC50, Aβ40 production

Row | IC50 [1] [nM] | SMILES | IC50 [2] [nM] | IC50 [3] [nM] | IC50 [4, 5] [nM] | Ki [3] [nM] | selectivity ratio ([2]; human, CHO-K1 cells stably expressing hERG, pH 7.4) | IC50 ([4]; read-out: Test Example 3 IC50, Aβ40 production) [nM]
1 | 2420 | CC1(C)Oc2ccc(-c3cccc4[nH]ccc34)cc2C2(COC(N)=N2)C12COC2 (stereo not drawn) [RP 186] | – | – | – | – | – | –
2 | – | Cc1cncc(-c2ccc3c(c2)C2(COC(N)=N2)C2(COC2)C2(CCC2)O3)c1 (stereo not drawn) [RP 75, 6′-(5-methylpyridin-3-yl)trispiro[cyclobutane-1,2′-chromene-4′,4″-[1,3]oxazole-3′,3′″-oxetan]-2″-amine] | > 10000 | 3670 | 1100 | – | – | –
3 | 2720 | CC1(C)Oc2ccc(-c3ccccc3OC(F)(F)F)cc2C2(COC(N)=N2)C12COC2 (stereo not drawn) [RP 184] | – | 2820 | – | – | – | –
4 | – | NC1=NC2(CO1)c1cc(-c3cncnc3)ccc1OC(Cc1ccccc1)C21COC1 (stereo not drawn) [RP 200] | > 10000 | 128 | 26 | 92.1 | – | –
5 | – | CCOc1cncc(-c2ccc3c(c2)C2(COC(N)=N2)C2(CC2)CO3)c1 (stereo not drawn) [RP 106] | 5750 | 1830 | 160 | – | – | –
6 | – | CC(C)Cc1ccc2c(c1)C1(COC(N)=N1)C1(COC1)C1(CCC1)O2 (stereo not drawn) [RP 46, 6′-isobutyltrispiro[cyclobutane-1,2′-chromene-4′,4″-[1,3]oxazole-3′,3′″-oxetan]-2″-amine] | > 10000 | 8940 | 1400 | – | – | –
7 | 19400 | NC1=NC2(CO1)c1cc(-c3cnc4ccccc4c3)ccc1OC1(CCC1)C21COC1 (stereo not drawn) [RP 211] | – | – | – | – | – | –
8 | 1060 | CC1(C)Oc2ccc(-c3ccnc(Cl)c3)cc2C2(COC(N)=N2)C12COC2 (stereo not drawn) [RP 163] | – | – | – | – | – | –
9 | – | NC1=NC2(CO1)c1cc(-c3cccnc3F)ccc1OC1(CCC1)C21COC1 (stereo not drawn) [RP 71] | > 10000 | 1080 | 110 | – | – | –
10 | – | CC#Cc1cncc(-c2ccc3c(c2)C2(COC(N)=N2)C2(CC2)CO3)c1 (stereo not drawn) [RP 111] | 1980 | 287 | 140 | 252 | – | –
11 | – | CCC1Oc2ccc(-c3cncnc3)cc2C2(COC(N)=N2)C12COC2 (stereo not drawn) [RP 84] | > 10000 | 735 | 410 | – | – | –
12 | – | COc1cccnc1Nc1ccc2c(c1)C1(COC(N)=N1)C1(COC1)C1(CCC1)O2 (stereo not drawn) [RP 45] | > 10000 | 1040 | 57 | – | – | –
13 | – | CC1(C)Oc2ccc(-c3cncnc3)cc2C2(CSC(N)=N2)C12COC2 (stereo not drawn) [RP 54, 2′,2′-dimethyl-6′-(pyrimidin-5-yl)dispiro[oxetane-3,3′-chromene-4′,4″-[1,3]thiazol]-2″-amine hydrochloride] | > 10000 | 406 | 79 | – | – | –
14 | – | NC1=NC2(CO1)c1cc(-c3cnc4[nH]ccc4c3)ccc1OCC21CC1 (stereo not drawn) [RP 61, 6′-(1H-pyrrolo[2,3-b]pyridin-5-yl)dispiro[cyclopropane-1,3′-chromene-4′,4″-[1,3]oxazol]-2″-amine] | 9220 | – | 350 | – | – | –
15 | – | NC1=NC2(CO1)c1cc(-c3cncc(C(F)(F)F)c3)ccc1OC1(CCC1)C21COC1 (stereo not drawn) [RP 99] | > 10000 | 2970 | 1900 | – | – | –
16 | – | COCc1cnn(-c2ccc3c(c2)C2(COC(N)=N2)C2(COC2)C2(CCC2)O3)c1 (stereo not drawn) [RP 4] | > 10000 | 12600 | 7200 | – | – | –
17 | – | NC1=NC2(CO1)c1cc(Br)ccc1OC(Cc1ccccc1)C21COC1 (single isomer, unassigned) [RP 15a] | > 10000 | 1720 | 1100 | – | – | –
18 | – | NC1=NC2(CO1)c1cc(-c3cccnc3)ccc1OC1(CCC1)C21COC1 (stereo not drawn) [RP 209] | > 10000 | 2000 | 830 | – | – | –
19 | – | CCc1cncc(-c2ccc3c(c2)C2(COC(N)=N2)C2(CC2)CO3)c1 (stereo not drawn) [RP 63] | 4480 | 7900 | 3300 | – | – | –
20 | 1550 | CC1(C)Oc2ccc(-c3cccc4cc[nH]c34)cc2C2(COC(N)=N2)C12COC2 (stereo not drawn) [RP 175] | – | 3230 | – | – | – | –
21 | 32900 | NC1=NC2(CO1)c1cc(C3=CCOCC3)ccc1OCC21COC1 (stereo not drawn) [RP 24] | – | 37900 | – | – | – | –
22 | – | CC#Cc1cncc(-c2ccc3c(c2)C2(COC(N)=N2)C2(COC2)C(CCC)O3)c1 (stereo not drawn) [RP 92] | 5340 | 124 | 37 | 87.9 | – | –
23 | – | CC#Cc1cncc(-c2ccc3c(c2)C2(COC(N)=N2)C2(CC2)CO3)c1 (single isomer, unassigned) [RP 52a, 6′-[5-(prop-1-yn-1-yl)pyridin-3-yl]dispiro[cyclopropane-1,3′-chromene-4′,4″-[1,3]oxazol]-2″-amine] | 4830 | 161 | 75 | – | – | –
24 | – | NC1=NC2(CO1)c1cc(-c3cncnc3)ccc1OCC21CC1 (stereo not drawn) [RP 100] | > 10000 | 2620 | 250 | – | – | –
25 | – | NC1=NC2(CO1)c1cc(Nc3ncccc3Cl)ccc1OCC21COC1 (stereo not drawn) [RP 43, 6′-(3-chloropyridin-2-yl)aminodispiro[1,3-oxazole-4,4′-chromene-3′,3″-oxetane]-2-amine] | > 10000 | 1960 | 1400 | – | – | –
26 | – | NC1=NC2(CO1)c1cc(-c3cncnc3)ccc1OC1(CCCC1)C21COC1 (stereo not drawn) [RP 85] | > 10000 | 319 | 77 | – | – | –

Row | IC50 [1] [nM] | SMILES | IC50 [2] [nM] | IC50 [3] [nM] | IC50 [4, 5] [nM] | Ki [3] [nM] | selectivity ratio ([2]; human, CHO-K1 cells stably expressing hERG, pH 7.4) | IC50 ([4]; read-out: Test Example 3 IC50, Aβ40 production) [nM]
27 | – | CC1(C)Oc2ccc(NC(=O)c3ccc(F)cn3)cc2[C@@]2(COC(N)=N2)C12CC2 [Example 222] | > 10000 | 138 | 0.62 | 91.5 | > 109 | –
28 | – | CC#Cc1cncc(-c2ccc3c(c2)C2(CSC(N)=N2)C2(COC2)CO3)c1 (stereo not drawn) [RP 68] | 6050 | 345 | 500 | – | – | –
29 | – | NC1=NC2(CO1)c1cc(Br)ccc1OC(CC1CC1)C21COC1 (single isomer, unassigned) [RP 16b] | > 10000 | 4570 | 4800 | – | – | –
30 | – | NC1=NC2(CO1)c1cc(Br)ccc1OC(Cc1ccccc1)C21COC1 (single isomer, unassigned) [RP 15b] | 7930 | 1010 | 440 | – | – | –
31 | 2310 | COc1cc(-c2ccc3c(c2)C2(COC(N)=N2)C2(COC2)C(C)(C)O3)ccn1 (stereo not drawn) [RP 164] | – | – | – | – | – | –
32 | – | NC1=NC2(CO1)c1cc(-c3cncnc3)ccc1OC(Cc1ccccc1)C21COC1 (stereo not drawn) [RP 202] | 7730 | 145 | – | 113 | – | 26
33 | – | NC1=NC2(CO1)c1cc(-c3cncnc3)ccc1OC(CC1CC1)C21COC1 (stereo not drawn) [RP 204] | > 10000 | 388 | 240 | – | – | –
34 | – | CC1(C)Oc2ccc(Br)cc2C2(CSC(N)=N2)C12COC2 (stereo not drawn) [RP 42] | > 10000 | 16100 | 5900 | – | – | –
35 | – | CC#Cc1cncc(-c2ccc3c(c2)C2(COC(N)=N2)C2(COC2)C(CC)O3)c1 (stereo not drawn) [RP 86] | 7940 | 143 | 58 | 107 | – | –
36 | – | NC1=NC2(CO1)c1cc(-c3cncc(C(F)F)c3)ccc1OC1(CCC1)C21COC1 (stereo not drawn) [RP 118] | > 10000 | 1810 | 990 | – | – | –
37 | – | NC1=NC2(COC1)c1cc(-c3cncnc3)ccc1OCC21CC1 (stereo not drawn) [RP 215, 6′-(pyrimidin-5-yl)-6″H-dispiro[cyclopropane-1,3′-chromene-4′,3″-[1,4]oxazin]-5″-amine] | > 10000 | 1210 | 240 | – | – | –
38 | 55400 | Cc1cc(-c2ccc3c(c2)C2(COC(N)=N2)C2(COC2)CO3)ccn1 (stereo not drawn) [RP 37] | – | – | – | – | – | –
39 | – | CC1(C)Oc2ccc(Br)cc2C2(COC(N)=N2)C12COC2 (stereo not drawn) [RP 6, 6′-bromo-2′,2′-dimethyldispiro[1,3-oxazole-4,4′-chromene-3′,3″-oxetan]-2-amine] | > 10000 | 11700 | 3900 | – | – | –
40 | – | NC1=NC2(CO1)c1cc(-c3cc(Cl)cnc3F)ccc1OCC21COC1 (stereo not drawn) [RP 34] | > 10000 | 1240 | 260 | – | – | –
41 | – | NC1=NC2(CO1)c1cc(-c3cncc(OCC(F)F)c3)ccc1OCC21CC1 (stereo not drawn) [RP 59] | 6900 | 1110 | 76 | – | – | –
42 | – | NC1=NC2(c3cc(-c4cncnc4)ccc3OCC23CC3)C(F)(F)CS1 (stereo not drawn) [RP 198, 5″,5″-difluoro-6′-(pyrimidin-5-yl)-5″,6″-dihydrodispiro[cyclopropane-1,3′-chromene-4′,4″-[1,3]thiazin]-2″-amine] | > 1000 | 14900 | – | – | – | –
43 | – | NC1=NC2(CO1)c1cc(-c3cncnc3)ccc1OC(CC1CC1)C21COC1 (stereo not drawn) [RP 207] | > 10000 | 460 | 160 | – | – | –
44 | – | NC1=NC2(CO1)c1cc(-c3cncnc3)c(F)cc1OCC21CC1 (stereo not drawn) [RP 102] | > 10000 | 1610 | 240 | – | – | –
45 | – | NC1=NC2(CO1)c1cc(-c3cncnc3)ccc1OC1(CCC1)C21COC1 (stereo not drawn) [RP 5] | > 10000 | 1560 | 590 | – | – | –
46 | – | COc1cncc(-c2ccc3c(c2)C2(COC(N)=N2)C2(CC2)CO3)c1 (stereo not drawn) [RP 105] | 7900 | 2940 | 340 | – | – | –
47 | – | CCCC1Oc2ccc(-c3cncnc3)cc2C2(COC(N)=N2)C12COC2 (stereo not drawn) [RP 91] | > 10000 | 656 | 340 | – | – | –
48 | – | NC1=NC2(CO1)c1cc(-c3cncnc3)ccc1OC(C1CC1)C21COC1 (stereo not drawn) [RP 88] | > 10000 | 2510 | 1400 | – | – | –
49 | – | NC1=NC2(c3cc(-c4cncnc4)ccc3OCC23CC3)c2cccc(F)c21 (stereo not drawn) [RP 199] | 4250 | 736 | 240 | – | – | –
50 | – | NC1=NC2(CO1)c1cc(-c3cncnc3)ccc1OCC21CC(F)(F)C1 (stereo not drawn) [RP 208] | > 10000 | 7760 | 6100 | – | – | –
51 | – | NC1=NC2(CO1)c1cc(Br)ccc1OC1(CCCC1)C21COC1 (stereo not drawn) [RP 10] | > 10000 | 7210 | – | – | – | –
